Read-outs that look alike come from different tables or passages of the source.
Columns and labels:
[1] = molecular target: T1, mouse TSPO recombinant protein (TSPO proteoliposomes) (Mus musculus, UniProt P50637); assay: SPR single-cycle kinetics on TSPO proteoliposomes; type: binding
T1 construct: His tag; made in house; host or cells: Escherichia coli BL21(DE3) pLysS, pET15b vector
Experimental: (§1) Cells of the BL21(DE3) pLysS Escherichia coli strain were transformed with the pET15b vector, from which the expression of mouse TSPO recombinant protein was induced by 1 mM isopropyl-1-thiol-β-D-galactopyranoside as previously described ([Robert and Lacapère, 2010]; [Senicourt et al., 2017]). Cells were harvested and resuspended in lysis buffer (150 mM NaCl and 50 mM HEPES-Na, pH 7.8) with the addition of 1 mg/ml lysozyme and sonicated thoroughly. The lysate was centrifuged at 15,000 g at 4°C for 20 min to pellet the insoluble inclusion bodies. The final pellet of inclusion bodies was solubilized in binding buffer (150 mM NaCl, 50 mM HEPES-Na, 1% SDS (wt/vol), pH 7.8) and was purified by the Ni-NTA gravity flow column.
Proteoliposomes composed of DMPC/DMPE (9:1) and TSPO in a 5:1 (wt/wt) ratio were prepared using a previously described method ([Ostuni et al., 2010]). Liposomes composed of DMPC/DMPE (9:1) were prepared as published previously ([Hatty et al., 2014]). A few milligrams of DMPC and DMPE were weighed into a round-bottom glass flask, and chloroform and methanol were added to dissolve them. A thin lipid film was prepared by a rotary evaporator and dried under vacuum for at least 3 h to remove all traces of chloroform and methanol. The dry lipid film was resuspended in PBS buffer (10 mM phosphate buffer, 2.7 mM KCl, 137 mM NaCl) to a concentration of 1 mg/ml, hydrated for 2 h at 45–55°C, and finally sonicated to produce small unilamellar vesicles. The suspension of small unilamellar vesicles was then kept at 45°C for use on the same day. The sizes of proteoliposomes and liposomes were determined by dynamic light scattering using Nicomp 380 Z3000 instrument (Parficle Sizing Systems, America).
SPR analyses were performed at 25°C with a Biacore T200 instrument. For proteoliposomes and liposomes (reference), they were immobilized on a series S L1 sensor chips. It is possible that the repeated regeneration steps in the multicycle kinetics process impairs the activity of TSPO proteoliposomes, thus we were unable to use multicycle kinetics to effectively determine the affinity of TSPO and its ligands. Therefore, the single cycle kinetics, which assumes to be as robust as the classical multicycle kinetics for measuring affinity, was used. Kinetic rate constants for the various analytes were determined using single cycle protocols where five serial 2-fold dilutions of the analytes were injected for 180 s without intervening regeneration, followed by a 300 s dissociation phase after the last injection. Interactions were measured at 30 μl/min. PBS, with addition of 1% DMSO (pH 7.4), was used as running buffer. […] For mouse TSPO in a lipid-free environment, affinity was measured according to established methods with minor modifications ([Zhang et al., 2015]). […]

[2] = tested on: postoperative pain model of rats; design: method as in Xiong et al., 2017; settings: ref Xiong et al., 2017, cited from earlier work
[3] = tested on: T98G human glioblastoma cells; assay: Cell proliferation assay (BrdU ELISA); type: cell-based; settings: 48 h
Experimental: T98G cells were plated at 1 × 10^4 cells/well in 96-well plates. […] After 48 h of drug exposure, proliferation was indexed using a BrdU ELISA Kit (Roche Molecular Diagnostics) according to the manufacturer’s protocol, and absorption was measured at 370 nm (reference wavelength 492 nm).

rat C6 glioma cells = assay: Pregnenolone production; type: cell-based; settings: 2 h
[4] = tested on: T98G human glioblastoma cells; assay: Cell viability assay (CellTiter Blue); type: cell-based; settings: same dosing regimen as proliferation, 48 h
Experimental: T98G cells were plated and treated as in the proliferation assays. After 48 h of drug exposure, CellTiter Blue Reagent (Promega) was added to the cells and incubated for 4 h in 5% CO2 at 37°C. Absorption was measured at 570 nm using 600 nm as a reference wavelength.

[5] = molecular target: T2, mouse TSPO recombinant protein (Mus musculus, UniProt P50637); assay: SPR multicycle kinetics, mouse TSPO in a lipid-free environment; type: binding; settings: CM5 chip, anti-His capture, read-out: affinity to mouse TSPO
T2 construct: made in house; host or cells: Escherichia coli BL21(DE3) pLysS, pET15b vector
Experimental: as §1
SPR analyses were performed at 25°C with a Biacore T200 instrument. For proteoliposomes and liposomes (reference), they were immobilized on a series S L1 sensor chips. It is possible that the repeated regeneration steps in the multicycle kinetics process impairs the activity of TSPO proteoliposomes, thus we were unable to use multicycle kinetics to effectively determine the affinity of TSPO and its ligands. Therefore, the single cycle kinetics, which assumes to be as robust as the classical multicycle kinetics for measuring affinity, was used. Kinetic rate constants for the various analytes were determined using single cycle protocols where five serial 2-fold dilutions of the analytes were injected for 180 s without intervening regeneration, followed by a 300 s dissociation phase after the last injection. Interactions were measured at 30 μl/min. PBS, with addition of 1% DMSO (pH 7.4), was used as running buffer. Three consecutive 1 min injections with 10 μl/min of glycine HCl 3.0 at the end of each single-cycle kinetics regenerated the chip. For mouse TSPO in a lipid-free environment, affinity was measured according to established methods with minor modifications ([Zhang et al., 2015]). Briefly, HBS-EP buffer was used as the running buffer. […]

[6] = molecular target: T3, TSPO from rat cerebral cortex (Rattus norvegicus, UniProt P16257); assay: 3H-PK11195 saturation binding; settings: 0.125–32 nM, 4°C, 2 h
T3 construct: male SD rats (240 ± 10 g) were killed by decapitation, and the cerebral cortices were dissected; from tissue; host or cells: rat (SD) cerebral cortex, crude mitochondrial/membrane pellet
T3 sequence (P16257 whole entry): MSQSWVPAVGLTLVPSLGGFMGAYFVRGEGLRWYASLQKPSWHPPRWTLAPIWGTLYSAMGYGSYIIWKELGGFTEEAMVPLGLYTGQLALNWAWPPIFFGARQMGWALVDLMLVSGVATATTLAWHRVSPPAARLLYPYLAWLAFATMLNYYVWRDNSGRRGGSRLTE
Experimental: After incubating at 4°C for 2 h, the reaction was terminated by the addition of ice-cold 50 mM Tris HCl buffer (pH 7.4) followed by vacuum filtration through Filtermat A glass microfiber filters (pretreated with 0.2% polyethylenimine) using a Brandel cell harvester. The filters were washed rapidly, and radioactivity was determined by liquid scintillation spectrometry.

[7] = molecular target: T3, TSPO from rat cerebral cortex; assay: 3H-PK11195 dissociation kinetics; type: binding; settings: vehicle; dissociation induced by 10 μM PK11195, 4°C
Experimental: Briefly, male SD rats (240 ± 10 g) were killed by decapitation, and the cerebral cortices were dissected. The tissues were homogenized in 10 volumes (ml/g) of 50 mM Tris HCl buffer containing 0.32 M sucrose (pH 7.4). The homogenates were centrifuged at 1,000 g for 10 min at 4°C. The resulting pellets were discarded, and the supernatants were centrifuged at 9,000 g for 15 min. The pellets were resuspended in 10 volumes of Tris HCl buffer containing 0.32 M sucrose (pH 7.4) and centrifuged at 13,000 g for 30 min, then resuspended in 10 volumes of Tris HCl buffer and centrifuged again at 13,000 g for 30 min. The final pellets were suspended in Tris HCl buffer and used in the binding assays. Protein concentrations were measured using the BCA Protein Assay Kit (ThermoFisher Scientific) according to the manufacturer’s instructions.
Then, samples were filtered through Filtermat A glass microfiber filters (pretreated with 0.2% polyethylenimine) using a Brandel cell harvester, and the radioactivities were measured at the indicated time points.

TSPO = molecular target: TSPO; design: method as in Awad and Gavish, 1987; Verma et al., 1987; settings: radioligand binding experiment results from literatures, ref Awad and Gavish, 1987, Verma et al.; cited from earlier work

## CCC(C)N(C)C(=O)c1cc2ccccc2c(-c2ccccc2Cl)n1 (stereo not drawn) [PK11195]
[1]
  Kd: 0.00197 ± 2e-05 µM
[2]; 7 μg PK11195 alone, intrathecal
  analgesic effect: can also produce a certain analgesic effect
[2]; intrathecal 0.7 μg PK11195 with 200 μg koumine
  effect on analgesic effect of intrathecal 200 μg koumine: weakened the analgesic effect
[2]; intrathecal injection of 0.7 μg PK11195
  analgesic effect: had no analgesic effect
[3]; BrdU
  EC20 concentration, inhibition of cell proliferation: ~75 µM
[3]; Homo sapiens, T98G, read-out: EC50, inhibition of cell proliferation
  EC50: 81 µM
Rat C6 glioma cells
  EC20 concentration, pregnenolone production: ~27 µM
Rat C6 glioma cells; vs vehicle
  increase in pregnenolone production: approximately 50%
Rat C6 glioma cells; Rattus norvegicus, C6 glioma, read-out: EC50, pregnenolone production
  EC50: 69 µM
[4]
  cell viability: not significantly affected
[5]
  Kd: 161 ± 6.1 µM

## CCC(C)N(C)C(=O)c1cc2ccccc2c(-c2ccccc2Cl)n1 (stereo not drawn) [^3H-PK11195, reference compound]
[6]
  Bmax: 143.3 ± 5.4 fmol/mg protein
[7]
  dissociation rate of 3H-PK11195: 0.0419 ± 0.0016 min⁻¹

## C=CC1=C(C)c2cc3[nH]c(cc4nc(cc5[nH]c(cc1n2)c(C)c5CCC(=O)O)C(CCC(=O)O)=C4C)c(C)c3C=C [protoporphyrin IX]
[1]; SPR single-cycle kinetics, TSPO proteoliposomes on L1 chip, 25°C, Langmuir 1:1 fit, read-out: KD
  Kd: 0.0126 ± 0.00039 µM
TSPO
  Kd: 0.0145 ± 0.0107 µM

From publication PMC8264504, “Identification of Koumine as a Translocator Protein 18 kDa Positive Allosteric Modulator for the Treatment of Inflammatory and Neuropathic Pain” (Frontiers in Pharmacology, 2021)
